Test results taken from patent US8629164B2, “Inhibitors of NF-κB” (Profectus Biosciences, Inc., priority 2009, dated 2014).

What was measured:
NF-κB [1] = assay: 293-cell pNF-κB-luc reporter assay, TNF-α induced; format: cell-based; conditions: for EC50: HEK293 cells, NF-κB driven luciferase expression, read-out: 293/NFkB-luc EC50
Outline: (§1)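 HEK293 cells with stably integrated NF-κB reporters, pNF-κB-luc (3 elements) or pTRH1-NF-κB-dscGFP (4 elements). Cells pretreated 2 h with 0–40 μM compound, then stimulated with 20 ng/ml TNF-α for 18 h; luminescence or fluorescence read. Activity referenced to 0.5% DMSO control; median of three independent experiments.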

[2] = system: PGE2 release from RAW264.7 cells; assay: PGE2 release from LPS stimulated RAW264.7 cells; format: cell-based, mouse; conditions: for EC50: Mus musculus, RAW264.7, RAW 264.7 cells
Protocol: (§2) Specifically, A and B show the effects of the compound of Example 1 on soluble PGE2 and Il-6 secretion from RAW264.7 cells stimulated by 1 μg/mL of LPS. The cells were treated with the indicated concentrations of the compound of Example 1 for 2 hours, and then LPS was added and incubation continued for 4 hours.
LPS stimulation induces the expression of COX-2 the enzyme responsible for prostaglandin E2.

RelB = biological target: T1, RelB (Homo sapiens, UniProt Q01201); assay: TransAM NF-κB Family DNA Binding ELISA, RelB
T1 sequence (Q01201 1-579): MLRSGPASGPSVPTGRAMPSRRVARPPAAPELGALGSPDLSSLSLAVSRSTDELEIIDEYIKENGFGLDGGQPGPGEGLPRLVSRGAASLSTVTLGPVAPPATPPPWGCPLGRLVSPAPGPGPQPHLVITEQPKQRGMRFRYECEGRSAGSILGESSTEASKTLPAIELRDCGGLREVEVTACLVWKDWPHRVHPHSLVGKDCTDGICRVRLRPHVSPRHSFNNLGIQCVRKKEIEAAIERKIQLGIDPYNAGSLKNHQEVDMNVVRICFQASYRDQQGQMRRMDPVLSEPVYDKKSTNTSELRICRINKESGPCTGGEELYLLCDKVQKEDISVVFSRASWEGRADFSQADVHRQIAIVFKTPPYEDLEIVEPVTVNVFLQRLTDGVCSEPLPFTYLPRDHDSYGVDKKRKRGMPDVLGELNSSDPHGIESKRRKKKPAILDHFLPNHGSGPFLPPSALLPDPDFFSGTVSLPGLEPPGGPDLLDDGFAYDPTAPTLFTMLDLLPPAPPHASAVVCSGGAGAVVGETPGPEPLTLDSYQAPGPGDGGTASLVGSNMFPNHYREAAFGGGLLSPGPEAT
T1 sequence (Q00653 1-454 partner limits assumed): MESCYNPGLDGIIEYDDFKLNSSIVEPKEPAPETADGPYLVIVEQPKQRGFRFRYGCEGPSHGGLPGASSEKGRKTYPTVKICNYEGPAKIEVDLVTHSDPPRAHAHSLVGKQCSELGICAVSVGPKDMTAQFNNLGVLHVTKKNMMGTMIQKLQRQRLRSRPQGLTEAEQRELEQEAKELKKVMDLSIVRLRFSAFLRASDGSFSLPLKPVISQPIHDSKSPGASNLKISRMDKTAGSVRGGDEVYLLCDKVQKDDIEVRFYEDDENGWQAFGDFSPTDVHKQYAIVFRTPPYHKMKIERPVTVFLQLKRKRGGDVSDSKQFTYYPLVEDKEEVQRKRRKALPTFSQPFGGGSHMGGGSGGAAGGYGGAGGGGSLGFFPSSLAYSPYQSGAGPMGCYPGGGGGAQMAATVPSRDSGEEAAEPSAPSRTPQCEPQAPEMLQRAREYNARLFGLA

c-Rel = biological target: T2, c-Rel (Homo sapiens, UniProt Q04864); assay: TransAM NF-κB Family DNA Binding ELISA, c-Rel; conditions: c-Rel binding IC50 (uM), cells without % sign
T2 sequence (Q04864 2-619 limits assumed): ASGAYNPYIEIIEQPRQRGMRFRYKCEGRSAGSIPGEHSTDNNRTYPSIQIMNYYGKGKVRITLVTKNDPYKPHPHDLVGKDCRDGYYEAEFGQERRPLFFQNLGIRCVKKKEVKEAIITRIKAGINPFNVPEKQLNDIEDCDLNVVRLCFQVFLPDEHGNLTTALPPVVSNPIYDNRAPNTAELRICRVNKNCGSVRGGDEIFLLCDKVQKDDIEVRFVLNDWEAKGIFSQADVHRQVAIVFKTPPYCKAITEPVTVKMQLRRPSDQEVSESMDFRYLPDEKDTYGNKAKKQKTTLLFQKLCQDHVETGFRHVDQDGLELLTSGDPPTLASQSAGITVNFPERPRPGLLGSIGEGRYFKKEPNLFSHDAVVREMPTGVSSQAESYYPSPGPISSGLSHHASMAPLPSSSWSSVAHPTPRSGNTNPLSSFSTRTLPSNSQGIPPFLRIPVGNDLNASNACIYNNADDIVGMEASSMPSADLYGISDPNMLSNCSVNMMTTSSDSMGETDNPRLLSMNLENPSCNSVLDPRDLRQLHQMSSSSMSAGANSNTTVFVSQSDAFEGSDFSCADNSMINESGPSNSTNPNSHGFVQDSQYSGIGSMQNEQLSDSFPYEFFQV
Protocol: (§3) Treated samples were then transferred to 30 μL Complete Binding Buffer (with DTT) in microplate wells pre-coated with the NF-κB consensus oligonucleotide. […] The plate was incubated for 1 hour at room temperature with gentle shaking and then washed 3 times with 200 μL 1× Wash Buffer. NF-κB p65, p50, p52, RelB, or c-Rel subunits bound to the plate were detected with 100 μL of the primary antibody (diluted 1:1000 in 1× Antibody Buffer) specific for that subunit. The plate was incubated for 1 hour at room temperature and then washed 3 times with 200 μL 1× Wash Buffer. Next, 100 μL of a HRP conjugated goat anti-rabbit antibody (diluted 1:1,000 in 1× Antibody Buffer) was added to each well. The plate was incubated for 1 hour at room temperature and then washed 4 times with 200 μL 1× Wash Buffer. 100 μL of room temperature Developing Solution was added to each well. The reaction was allowed to develop for 2-10 minutes until a medium dark blue color developed (depending on the subunit activity in the lot of extract or lot of recombinant protein used) and then the reaction was stopped with 100 μL Stop Solution yielding a yellow color. Absorbance was recorded using a Becton-Dickinson DTX 880 Multimode Detector at 450 nm with a reference wavelength subtracted at 620 nm.

p65 (RelA) = p65 (RelA) (Homo sapiens, UniProt Q04206); assay: TransAM NF-κB Family DNA Binding ELISA, p65; conditions: for IC50: p65 binding IC50 (uM), binding to NF-κB sites
p65 (RelA), sequence (Q04206 whole entry): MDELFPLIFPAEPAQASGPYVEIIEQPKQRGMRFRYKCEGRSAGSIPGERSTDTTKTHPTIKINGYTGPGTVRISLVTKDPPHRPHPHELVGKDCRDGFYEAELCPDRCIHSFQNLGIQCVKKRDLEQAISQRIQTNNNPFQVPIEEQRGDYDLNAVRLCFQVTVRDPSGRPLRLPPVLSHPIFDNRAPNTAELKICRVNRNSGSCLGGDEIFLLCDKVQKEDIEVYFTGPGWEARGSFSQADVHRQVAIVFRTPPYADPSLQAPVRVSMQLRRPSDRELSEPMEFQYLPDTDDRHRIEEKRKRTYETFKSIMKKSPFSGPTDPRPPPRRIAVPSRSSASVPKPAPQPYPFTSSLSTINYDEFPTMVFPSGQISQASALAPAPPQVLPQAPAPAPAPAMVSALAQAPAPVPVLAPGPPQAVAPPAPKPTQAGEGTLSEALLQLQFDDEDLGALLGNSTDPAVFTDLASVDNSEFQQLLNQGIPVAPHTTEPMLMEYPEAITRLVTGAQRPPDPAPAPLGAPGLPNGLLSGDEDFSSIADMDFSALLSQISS
Protocol: as §3

[3] = system: IL-6 release from RAW264.7 cells; assay: IL-6 release from LPS stimulated RAW264.7 cells; format: cell-based, mouse; conditions: for EC50: Mus musculus, RAW264.7, RAW 264.7 cells
Protocol: as §2, with “hours. […]” for “hours.”

NF-κB [4] = assay: 293-cell pTRH1-NF-κB-dscGFP reporter assay, TNF-α induced; format: cell-based; conditions: for EC50: Homo sapiens, HEK293, HEK293 cells, NF-κB driven GFP expression, read-out: NF-kB/293/GFP EC50
Outline: as §1

[5] = RelB binding IC50 (uM), cells without % sign

| SMILES | IC50 (NF-κB [1]; 2 hours pre-treatment, 20 ng/ml TNF-α 18 hours, median of three experiments ± standard error, read-out: median IC50, expression of the luciferase gene) | EC50 (NF-κB [1]) | decrease in downstream PGE2 synthesis ([2]; LPS stimulated, FIG. 5A) | EC50 [2] | IC50 (RelB; [5]) | IC50 (c-Rel) | IC50 (p65 (RelA)) | inhibition of IL-6 ([3]; LPS stimulated RAW264.7, FIG. 5B) | EC50 [3] | IC50 (NF-κB [4]; 2 hours pre-treatment, 20 ng/ml TNF-α 18 hours, median of three experiments ± standard error, read-out: median IC50, expression of the Green fluorescent protein gene) | EC50 (NF-κB [4]) | IC50 (RelB; RelB binding to DNA IC50, FIG. 8, non-canonical pathway) | inhibition of p65 (RelA) binding to DNA, comparison (p65 (RelA); FIG. 7, canonical pathway) |
| --- | --- | --- | --- | --- | --- | --- | --- | --- | --- | --- | --- | --- | --- |
| O=C(NC1=CC(=O)C2OC2C1O)c1cccnc1O (racemic) [Example 1, (±)-2-hydroxy-N-(2-hydroxy-5-oxo-7-oxabicyclo[4.1.0]hept-3-en-3-yl)nicotinamide] | 16.2 ± 1.1 µM | 6.2 µM | dose dependent | 6.9 µM | 7.4 µM | 4.6 µM | 2.2 µM | inhibited in a dose dependent manor | 6.5 µM | 6.2 ± 0.5 µM | 6.2 µM | – | – |
| O=C(NC1=CC(=O)C2OC2C1O)c1cc2ccccc2nc1O (racemic) [Example 2, (±)-2-hydroxy-N-(2-hydroxy-5-oxo-7-oxabicyclo[4.1.0]hept-3-en-3-yl)quinoline-3-carboxamide] | – | 4.1 µM | – | 1.8 µM | 2 µM | 2.1 µM | 1.4 µM | – | 0.24 µM | – | 0.21 µM | ~2 µM | more potently than DHMEQ and parthenolide |
